Source: PubChem BioAssay AID1963858 (Molecular Pharmacology Branch, DTP, NCI, 2024)
Several values for one entry are separate records, joined by “and”; a condition that tells them apart may be missing. Equal entries are not always repeated.

Tested on: HOP-62 multicell spheroids with HUVEC/MSC, viability
Assay: Anticancer human tumor HOP-62 cell line growth inhibition [KRAS2];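 note: viability read after a week of compound exposure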;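 for viability, T/C: 100% = DMSO vehicle-treated spheroids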
Details: for viability, T/C: stronger effect = lower value; active = viability on the fitted dose curve at most 10% of control; inactive = the rest
Procedure, shortened: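 Combination screen of spheroid viability in tumor-cell co-cultures with endothelial (HUVEC) and mesenchymal stem cell stroma. Each agent was tested in half-log dilutions, topping at clinical Cmax or at 10 microM without a known Cmax.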

[1] = curve of first compound, second compound 0.1 µM
[2] = curve of first compound, second compound 0.316 µM
[3] = curve of first compound, second compound 1 µM
[4] = curve of first compound, second compound 3.16 µM
[5] = second compound 0.1 µM, first compound 0.000316 µM
[6] = second compound 0.1 µM, first compound 0.001 µM
[7] = second compound 0.1 µM, first compound 0.00316 µM
[8] = second compound 0.1 µM, first compound 0.01 µM
[9] = second compound 0.1 µM, first compound 0.0316 µM
[10] = second compound 0.1 µM, first compound 0.1 µM
[11] = second compound 0.316 µM, first compound 0.000316 µM
[12] = second compound 0.316 µM, first compound 0.001 µM
[13] = second compound 0.316 µM, first compound 0.00316 µM
[14] = second compound 0.316 µM, first compound 0.01 µM
[15] = second compound 0.316 µM, first compound 0.0316 µM
[16] = second compound 0.316 µM, first compound 0.1 µM
[17] = second compound 1 µM, first compound 0.000316 µM
[18] = second compound 1 µM, first compound 0.001 µM
[19] = second compound 1 µM, first compound 0.00316 µM
[20] = second compound 1 µM, first compound 0.01 µM
[21] = second compound 1 µM, first compound 0.0316 µM
[22] = second compound 1 µM, first compound 0.1 µM
[23] = second compound 3.16 µM, first compound 0.000316 µM
[24] = second compound 3.16 µM, first compound 0.001 µM
[25] = second compound 3.16 µM, first compound 0.00316 µM
[26] = second compound 3.16 µM, first compound 0.01 µM
[27] = second compound 3.16 µM, first compound 0.0316 µM
[28] = second compound 3.16 µM, first compound 0.1 µM
[29] = curve of first compound, second compound 10 µM
[30] = second compound 0.1 µM, first compound 0.316 µM
[31] = second compound 0.1 µM, first compound 1 µM
[32] = second compound 0.1 µM, first compound 3.16 µM
[33] = second compound 0.1 µM, first compound 10 µM
[34] = second compound 0.316 µM, first compound 0.316 µM
[35] = second compound 0.316 µM, first compound 1 µM
[36] = second compound 0.316 µM, first compound 3.16 µM
[37] = second compound 0.316 µM, first compound 10 µM
[38] = second compound 1 µM, first compound 0.316 µM
[39] = second compound 1 µM, first compound 1 µM
[40] = second compound 1 µM, first compound 3.16 µM
[41] = second compound 1 µM, first compound 10 µM
[42] = second compound 3.16 µM, first compound 0.316 µM
[43] = second compound 3.16 µM, first compound 1 µM
[44] = second compound 3.16 µM, first compound 3.16 µM
[45] = second compound 3.16 µM, first compound 10 µM
[46] = second compound 10 µM, first compound 0.0316 µM
[47] = second compound 10 µM, first compound 0.1 µM
[48] = second compound 10 µM, first compound 0.316 µM
[49] = second compound 10 µM, first compound 1 µM
[50] = second compound 10 µM, first compound 3.16 µM
[51] = second compound 10 µM, first compound 10 µM

Cn1ncnc1[C@H]1c2n[nH]c(=O)c3cc(F)cc(c23)N[C@@H]1c1ccc(F)cc1 + C=CC(=O)N1CCN(c2nc(OCC3CCCN3C)nc3c2CCN(c2cccc4cccc(C)c24)C3)CC1CC#N
inactive: viability, T/C (second compound 0.0316 µM, first compound 0.000316 µM) 88.8% | viability, T/C (second compound 0.0316 µM, first compound 0.001 µM) 79.7% | viability, T/C (second compound 0.0316 µM, first compound 0.00316 µM) 82.3% | viability, T/C (second compound 0.0316 µM, first compound 0.01 µM) 75.7% | viability, T/C (second compound 0.0316 µM, first compound 0.0316 µM) 74.3% | viability, T/C (second compound 0.0316 µM, first compound 0.1 µM) 59.7% | viability, T/C [5] 64.6% | viability, T/C [6] 58.3% | viability, T/C [7] 74% | viability, T/C [8] 49.8% | viability, T/C [9] 41.9% | viability, T/C [10] 44.7% | viability, T/C [11] 48.7% | viability, T/C [12] 42% | viability, T/C [13] 40.6% | viability, T/C [14] 38.5% | viability, T/C [15] 30.6% | viability, T/C [16] 33% | viability, T/C [17] 32.4% | viability, T/C [18] 30.2% | viability, T/C [19] 27.1% | viability, T/C [20] 25.7% | viability, T/C [21] 24.8% | viability, T/C [22] 22.1%
< 0.316 nM: IC50 [2] | IC50 [3] | IC50 [4]
active: viability, T/C [23] 0.61% | viability, T/C [24] 0.57% | viability, T/C [25] 0.44% | viability, T/C [26] 0.5% | viability, T/C [27] 0.51% | viability, T/C [28] 0.71%
> 100 nM: IC50 (curve of first compound, second compound 0.0316 µM)
9.86 nM: IC50 [1]

CC(C)NCC(C(=O)N1CCN(c2ncnc3c2C(C)CC3O)CC1)c1ccc(Cl)cc1 (configuration not stated) + CC1OCC2(CCN(c3cnc(Sc4ccnc(N)c4Cl)c(N)n3)CC2)C1N
235 nM: IC50 [2]
inactive: viability, T/C [9] 88.7% | viability, T/C [10] 81.9% | viability, T/C [30] 53.5% | viability, T/C [31] 27.6% | viability, T/C [32] 11.3% | viability, T/C [15] 65.7% | viability, T/C [16] 66.2% | viability, T/C [34] 43.4% | viability, T/C [35] 21.7% | viability, T/C [21] 55.9% | viability, T/C [22] 42.3% | viability, T/C [38] 20.5% | viability, T/C [27] 37.6% | viability, T/C [28] 27.2% | viability, T/C [42] 13% | viability, T/C [46] 25.7% | viability, T/C [47] 20.4% | viability, T/C [48] 14.5%
52.1 nM: IC50 [3]
< 31.6 nM: IC50 [4] | IC50 [29]
active: viability, T/C [33] 7.62% | viability, T/C [36] 8.04% | viability, T/C [37] 5.81% | viability, T/C [39] 7.92% | viability, T/C [40] 6.64% | viability, T/C [41] 4.61% | viability, T/C [43] 7.62% | viability, T/C [44] 4.7% | viability, T/C [45] 3.86% | viability, T/C [49] 7.49% | viability, T/C [50] 4.67% | viability, T/C [51] 3.48%
389 nM: IC50 [1]

Cn1nccc1Nc1nccc(-c2cc3c(s2)C(C)(C)N(CCN2CCOCC2)C3=O)n1 + CC1OCC2(CCN(c3cnc(Sc4ccnc(N)c4Cl)c(N)n3)CC2)C1N
inactive: viability, T/C [9] 94.3% | viability, T/C [10] 85.4% | viability, T/C [30] 70% | viability, T/C [31] 48.6% | viability, T/C [32] 21.4% | viability, T/C [33] 24.1% | viability, T/C [15] 85.2% | viability, T/C [16] 71.6% | viability, T/C [34] 51.8% | viability, T/C [35] 30.8% | viability, T/C [36] 21.8% | viability, T/C [37] 20.5% | viability, T/C [21] 62.9% | viability, T/C [22] 48.4% | viability, T/C [38] 36% | viability, T/C [39] 21.2% | viability, T/C [40] 18.1% | viability, T/C [41] 18.7% | viability, T/C [27] 40.2% | viability, T/C [28] 35.4% | viability, T/C [42] 31.9% | viability, T/C [43] 15.7% | viability, T/C [44] 14.9% | viability, T/C [45] 16.6% | viability, T/C [46] 29.6% | viability, T/C [47] 35.7% | viability, T/C [48] 18.7% | viability, T/C [49] 17.1% | viability, T/C [50] 13.7% | viability, T/C [51] 11.9%
< 31.6 nM: IC50 [4] | IC50 [29]
331 nM: IC50 [2]
97.8 nM: IC50 [3]
803 nM: IC50 [1]

Cn1ncnc1[C@H]1c2n[nH]c(=O)c3cc(F)cc(c23)N[C@@H]1c1ccc(F)cc1
inactive: viability, T/C (compound 0.000316 µM) 105% [middle of 5 runs] | viability, T/C (compound 0.001 µM) 102% (2×) and 95.9% and 103% (2×) | viability, T/C (compound 0.00316 µM) 103% [middle of 5 runs] | viability, T/C (compound 0.01 µM) 99.4% [middle of 5 runs] | viability, T/C (compound 0.0316 µM) 98% [middle of 5 runs] | viability, T/C (compound 0.1 µM) 85.3% [middle of 5 runs]
> 100 nM: IC50 (curve of compound)

CN(C)C/C=C/C(=O)Nc1cc2c(Nc3ccc(F)c(Cl)c3)ncnc2cc1O[C@H]1CCOC1 + COc1cc2nc(C)nc(NC(C)c3cc(N)cc(C(F)(F)F)c3)c2cc1OC1CCOC1
inactive: viability, T/C [5] 105% | viability, T/C [6] 109% | viability, T/C [7] 105% | viability, T/C [8] 107% | viability, T/C [9] 105% | viability, T/C [10] 97% | viability, T/C [11] 115% | viability, T/C [12] 107% | viability, T/C [13] 112% | viability, T/C [14] 96.7% | viability, T/C [15] 100% | viability, T/C [16] 97.7% | viability, T/C [17] 107% | viability, T/C [18] 102% | viability, T/C [19] 114% | viability, T/C [20] 106% | viability, T/C [21] 101% | viability, T/C [22] 111% | viability, T/C [23] 72.3% | viability, T/C [24] 64.1% | viability, T/C [25] 70% | viability, T/C [26] 64.2% | viability, T/C [27] 59.8% | viability, T/C [28] 64.3% | viability, T/C (second compound 10 µM, first compound 0.000316 µM) 73.7% | viability, T/C (second compound 10 µM, first compound 0.001 µM) 51.6% | viability, T/C (second compound 10 µM, first compound 0.00316 µM) 49.6% | viability, T/C (second compound 10 µM, first compound 0.01 µM) 62.7% | viability, T/C [46] 59.9% | viability, T/C [47] 70.8%
> 100 nM: IC50 [1] | IC50 [2] | IC50 [3] | IC50 [4] | IC50 [29]
